The results in this text go back to PubChem BioAssay (NCI).

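Briefly, cells in 96-well plates were exposed to five compound concentrations for 48 h, and endpoints were estimated by linear interpolation. GI50 is the concentration that inhibits growth by half. TGI is the concentration that stops growth completely.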

Test systems include CAKI-1 renal; OVCAR-3 ovarian; SK-MEL-2 melanoma; SK-OV-3 ovarian; MCF7 breast; NCI-H23 lung; SR leukemia; HOP-92 NSCLC; CCRF-CEM leukemia; HOP-62 NSCLC.
Test in all cases: inhibition of tumour cell growth, NCI panel, 48 h

Consider `O=C(NCC1CCCO1)c1ccc(NC2=C(Cl)C(=O)N(Cc3ccccc3)C2=O)cc1` (stereo not drawn), for which the GI50 is 1.79 µM in the assay with CAKI-1 renal; 3.18 µM in the assay on OVCAR-3 ovarian; 17.5 µM in the assay on SK-MEL-2 melanoma; 18.6 µM with SK-OV-3 ovarian; 4.39 µM in the assay on MCF7 breast; 17.2 µM in the assay on NCI-H23 lung. The results for the GI50 with SR leukemia and in the assay with HOP-92 NSCLC were 12.4 µM and 6.4 µM, respectively. The TGI was determined as 3.34 µM with CAKI-1 renal; 10.7 µM in the assay with OVCAR-3 ovarian; 34.7 µM in the assay with SK-MEL-2 melanoma; 36.6 µM in the assay on SK-OV-3 ovarian; 26.6 µM in the assay on MCF7 breast; 34.3 µM in the assay with NCI-H23 lung. Also, the TGI in the assay with SR leukemia was 30.9 µM; with HOP-92 NSCLC it was 21.5 µM.
For the compound `N#CC(C(=O)/C(=N\NC(N)=O)C(C#N)c1ccccc1)c1ccccc1` (stereo not drawn), the TGI with CAKI-1 renal, with OVCAR-3 ovarian, in the assay on SK-MEL-2 melanoma, in the assay on SK-OV-3 ovarian, in the assay on CCRF-CEM leukemia and in the assay on HOP-62 NSCLC was more than 100 µM each time. Moreover, the TGI with NCI-H23 lung, in the assay with SR leukemia and with HOP-92 NSCLC was more than 100 µM throughout.
For the compound `NC1=NN(c2ccccc2)C(=O)C1C(=O)C(=O)Nc1ccc(Cl)c(Cl)c1` (stereo not drawn), the TGI in the assay with CAKI-1 renal, with OVCAR-3 ovarian, with SK-MEL-2 melanoma, in the assay with SK-OV-3 ovarian, with CCRF-CEM leukemia and in the assay on HOP-62 NSCLC was more than 100 µM each time. Moreover, the TGI with NCI-H23 lung, in the assay with SR leukemia and in the assay on HOP-92 NSCLC was more than 100 µM each time.
As to `COC(=O)[C@@H]1Cc2c([nH]c3ccccc23)[C@H](c2ccccc2)N1`, the TGI in the assay on CAKI-1 renal is more than 100 µM; with OVCAR-3 ovarian, 98.7 µM; with SK-MEL-2 melanoma it was 82.8 µM; in the assay on SK-OV-3 ovarian it was 89.7 µM; with CCRF-CEM leukemia, more than 100 µM; with NCI-H23 lung, more than 100 µM. In addition, the TGI in the assay with SR leukemia and with HOP-92 NSCLC was more than 100 µM each time.
For `CCOc1ccccc1N=Nc1c(-c2ccccc2)nn(C(=O)CC(=O)Nc2cccc(C)c2)c1-c1ccccc1`, the TGI in the assay on CAKI-1 renal, with OVCAR-3 ovarian, in the assay on SK-MEL-2 melanoma, in the assay on SK-OV-3 ovarian, in the assay with CCRF-CEM leukemia and with HOP-62 NSCLC was more than 100 µM throughout. Also, the TGI in the assay with NCI-H23 lung, with SR leukemia and with HOP-92 NSCLC was more than 100 µM each time.
In the case of `CC(C)COc1nc2c(c(=O)n(C)c(=O)n2C)n1C`, the GI50 in the assay on CAKI-1 renal was 18.2 µM; in the assay with OVCAR-3 ovarian, more than 100 µM; in the assay with SK-OV-3 ovarian, more than 100 µM; in the assay on MCF7 breast, more than 100 µM; with CCRF-CEM leukemia, more than 100 µM; in the assay on HOP-62 NSCLC, more than 100 µM. The GI50 in the assay on NCI-H23 lung, in the assay with SR leukemia and in the assay on HOP-92 NSCLC was more than 100 µM throughout. Moreover, the TGI in the assay on CAKI-1 renal, in the assay with OVCAR-3 ovarian, with SK-OV-3 ovarian, in the assay on MCF7 breast, with CCRF-CEM leukemia and with HOP-62 NSCLC was more than 100 µM each time. In addition, the TGI in the assay with NCI-H23 lung, in the assay with SR leukemia and in the assay on HOP-92 NSCLC was more than 100 µM throughout.
`COc1cccc(Nc2nc3ccccc3c3occc23)c1`: the GI50 in the assay on CAKI-1 renal is 4.19 µM; with OVCAR-3 ovarian, 9.1 µM; with SK-MEL-2 melanoma, 13 µM; in the assay on SK-OV-3 ovarian, 8.48 µM; in the assay on MCF7 breast, 43.7 µM; with HOP-62 NSCLC, 15 µM. For the same compound, the GI50 is 10.2 µM in the assay on NCI-H23 lung, 21.2 µM in the assay with SR leukemia and 13 µM in the assay with HOP-92 NSCLC. Further, the TGI in the assay on CAKI-1 renal is 15.6 µM; with OVCAR-3 ovarian it was 21.2 µM; in the assay with SK-MEL-2 melanoma it was 30.6 µM; with SK-OV-3 ovarian it was 22.7 µM; in the assay with MCF7 breast, more than 100 µM; in the assay on HOP-62 NSCLC, 39 µM. For the same compound, the TGI with NCI-H23 lung stood at 22.6 µM; in the assay on SR leukemia it was 95 µM; with HOP-92 NSCLC, 31.1 µM.
As for `Cc1cc2c(-c3nc4ccccn4c3N)c(O)c(O)cc2c(O)c1-c1c(C)cc2c(-c3nc4ccccn4c3N)c(O)c(O)cc2c1O`, the GI50 is 1.36 µM with OVCAR-3 ovarian; 0.961 µM in the assay on SK-MEL-2 melanoma; 0.805 µM in the assay with SK-OV-3 ovarian; 0.606 µM in the assay on MCF7 breast; 0.497 µM in the assay on CCRF-CEM leukemia; 1.15 µM in the assay with HOP-62 NSCLC. Moreover, the GI50 was 0.543 µM with NCI-H23 lung, 1.96 µM in the assay with SR leukemia and 0.65 µM in the assay on HOP-92 NSCLC. Moreover, the TGI in the assay on OVCAR-3 ovarian was more than 25 µM; in the assay on SK-MEL-2 melanoma it was 23.4 µM; in the assay on SK-OV-3 ovarian, 6.03 µM; in the assay on MCF7 breast it was more than 25 µM; with CCRF-CEM leukemia, more than 25 µM; with HOP-62 NSCLC it was more than 25 µM. The TGI with NCI-H23 lung is more than 25 µM; with SR leukemia it was more than 25 µM; in the assay with HOP-92 NSCLC it was 2.29 µM.
Consider `O=C1C2C3CC(C4C5C=CC(C5)C34)C2C2C3CC(C12)C1C2C=CC(C2)C31` (stereo not drawn), for which the TGI with CAKI-1 renal, in the assay with OVCAR-3 ovarian, with SK-MEL-2 melanoma, in the assay with SK-OV-3 ovarian, in the assay with CCRF-CEM leukemia and in the assay with HOP-62 NSCLC was more than 100 µM throughout. Further, the TGI with NCI-H23 lung, in the assay with SR leukemia and with HOP-92 NSCLC was more than 100 µM each time.
In the case of `CCNC(=O)OCc1c(COC(=O)NCC)c(-c2ccc(Cl)c(Cl)c2)n2c1CCC2`, the TGI in the assay on CAKI-1 renal was 14.6 µM; in the assay on OVCAR-3 ovarian it was 45.8 µM; in the assay with SK-MEL-2 melanoma it was 28.1 µM; in the assay on CCRF-CEM leukemia it was 21.4 µM; in the assay with HOP-62 NSCLC, 23.8 µM; in the assay with NCI-H23 lung, 26.3 µM. The TGI was determined as 30.1 µM in the assay on SR leukemia and 24.4 µM in the assay on HOP-92 NSCLC.
`O=C(O)C1[O][Sb][O]C(C(=O)O)C1O` (stereo not drawn): the GI50 with CAKI-1 renal, in the assay with OVCAR-3 ovarian, with SK-MEL-2 melanoma, in the assay with CCRF-CEM leukemia, in the assay with HOP-62 NSCLC and with NCI-H23 lung was more than 100 µM each time. The GI50 in the assay with SR leukemia and in the assay on HOP-92 NSCLC was more than 100 µM each time. Further, the TGI in the assay on CAKI-1 renal, with OVCAR-3 ovarian, in the assay with SK-MEL-2 melanoma, in the assay on CCRF-CEM leukemia, in the assay with HOP-62 NSCLC and in the assay on NCI-H23 lung was more than 100 µM throughout. In addition, the TGI in the assay with SR leukemia and with HOP-92 NSCLC was more than 100 µM each time.
